# Data taken from US6514967B1 (priority 1997, dated 2003).
# What was measured:
# [1] = Chemical test of capture of OH• radicals (deoxyribose competition); assay type: biochemical; details: rate constant of reaction of the competitor with OH•; competition with 2-deoxyribose, UV at 532 nm
# Procedure: A) Chemical test of capture of OH^• radicals:
# (Free Rad. Res. Comms., Vol. 14, Nos. 5-6, pp. 363-372)
# […] of buffer (30 mM Na2HPO4.7H2O, 40 mM NaCl, 0.1 mM EDTA), 125 ml of deoxyribose at 2.10^−3 mM and 125 ml of 4-times concentrated solution of radical inhibitor (final concentration from 0 to 0.5 mM) were placed in glass haemolysis tubes cooled on an ice bath. […] of FeSO4 at 10^−3 mM (in water) is added at time 0. After 15 min of incubation the reaction is stopped with 250 ml of trichloroacetic acid at 3%, to which is added 250 ml of solution of thiobarbituric acid at 1.5% (in water). The tubes are kept at 100° C. for 10 min then cooled for detection with UV at 532 nm. The linear relation A0/A=1+ks/dkr [(competitor)/(2-deoxyribose)] was used, where A0 and A denote the absorbances in the absence and in the presence of competitor, ks is the rate constant of reaction of the competitor with OH• and kdr=1.9*10^9 M^−1 sec^−1 is the rate constant of reaction of 2-deoxyribose with OH•. Thus ks is equal to the gradient of the straight line A0/A f((competitor)/(2-deoxyribose)) multiplied by kdr.
# xanthine oxidase = xanthine oxidase (Homo sapiens, UniProt P47989); assay: Action of the derivatives on xanthine oxidase; assay type: biochemical
# Sequence of xanthine oxidase (P47989 whole entry, species assumed): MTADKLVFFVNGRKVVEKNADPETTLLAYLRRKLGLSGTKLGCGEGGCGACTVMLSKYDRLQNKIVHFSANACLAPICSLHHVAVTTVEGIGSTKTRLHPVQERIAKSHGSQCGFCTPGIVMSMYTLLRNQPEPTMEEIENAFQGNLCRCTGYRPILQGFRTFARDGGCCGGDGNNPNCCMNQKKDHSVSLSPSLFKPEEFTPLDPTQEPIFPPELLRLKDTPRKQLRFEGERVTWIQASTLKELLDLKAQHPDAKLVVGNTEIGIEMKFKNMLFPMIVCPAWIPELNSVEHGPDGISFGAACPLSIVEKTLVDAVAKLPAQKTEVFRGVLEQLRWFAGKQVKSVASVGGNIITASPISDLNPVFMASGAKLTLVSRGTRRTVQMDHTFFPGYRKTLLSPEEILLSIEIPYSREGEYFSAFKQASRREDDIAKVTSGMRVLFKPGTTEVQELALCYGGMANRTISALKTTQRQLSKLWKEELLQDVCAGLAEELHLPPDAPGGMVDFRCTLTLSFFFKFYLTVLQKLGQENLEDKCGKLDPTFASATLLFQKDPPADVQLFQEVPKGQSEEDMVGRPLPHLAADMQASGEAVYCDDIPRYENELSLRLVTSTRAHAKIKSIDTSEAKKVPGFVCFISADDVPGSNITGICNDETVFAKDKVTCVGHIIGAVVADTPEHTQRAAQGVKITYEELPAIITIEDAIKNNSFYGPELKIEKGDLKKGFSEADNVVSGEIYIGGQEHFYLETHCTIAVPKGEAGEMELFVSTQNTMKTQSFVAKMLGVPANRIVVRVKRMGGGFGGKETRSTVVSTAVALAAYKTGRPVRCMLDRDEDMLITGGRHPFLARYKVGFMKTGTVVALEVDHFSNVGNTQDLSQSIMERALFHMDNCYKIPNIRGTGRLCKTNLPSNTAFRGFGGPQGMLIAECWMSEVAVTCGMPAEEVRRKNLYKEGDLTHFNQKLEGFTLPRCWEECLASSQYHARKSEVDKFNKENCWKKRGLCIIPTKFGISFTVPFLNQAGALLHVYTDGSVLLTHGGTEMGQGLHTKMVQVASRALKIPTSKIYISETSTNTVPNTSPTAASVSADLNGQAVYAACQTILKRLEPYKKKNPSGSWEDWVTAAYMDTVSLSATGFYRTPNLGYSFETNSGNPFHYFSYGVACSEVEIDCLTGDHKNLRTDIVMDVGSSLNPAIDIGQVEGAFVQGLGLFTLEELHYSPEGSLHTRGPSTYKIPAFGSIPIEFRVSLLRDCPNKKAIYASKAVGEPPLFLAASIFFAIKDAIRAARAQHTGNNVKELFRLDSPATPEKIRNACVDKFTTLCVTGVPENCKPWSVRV
# Procedure: Action of the derivatives on xanthine oxidase:
# (Free Radical Biology & Medicine, Vol 20, No 1, pp.35-43, 1996)
# […] of xanthine 20 mM in soda 0.1N and […] of the test product in phosphate buffer at pH 7.4 were placed in a final volume of 2 ml. Reaction is started by adding […] of solution of xanthine oxidase at 0.56 U/ml. Formation of […] is monitored by UV spectroscopy at 290 nm. Allopurinol is a reference inhibitor.
# [2] = Concentration in brain and plasma after systemic injection; assay type: in vivo, rats of the Wistar strain
# Procedure: Experimental preparation: [Amer. J. Physiol., 267 (1994) R164-R170]
# Under general anaesthesia, catheters made from tubes of flexible and inert polyethylene PE50 (Clay Adams) are placed in the right carotid artery of male rats of the Wistar strain weighing 250 g, and are slid under the skin to emerge at the nape at a site that is inaccessible to the animal. The injections are carried out 5 days later, to allow the animals optimum post-operative recovery. This arrangement permits easy and very quick systemic injections on the animal while it is conscious.
# At the specified time after injection, the animals are killed by decapitation. The brains are removed in less than a minute without further fractionation. The meninges are quickly separated and the brains are rinsed in a large volume of physiological serum before being frozen at −30° C. The blood is collected on EDTA in tubes maintained at 0° C. After centrifugation, the plasma is separated and aliquots are preserved at −30° C.
# After thawing, the brains are weighed and homogenized in the cold in 3 volumes of NaOH (0.1N), using an Ultra-Turrax pulverizer. An internal standard, at a suitable concentration, is added to each sample to allow for individual variations in extraction. The pulverizates are directly extracted three times with a total of 6 volumes of ethyl acetate, followed each time by centrifugation at high speed.
# Apart from the stage of pulverizing, the plasmas are treated similarly.
# The extracts are filtered through a 0.22 μm Millipore membrane and, after evaporation of the solvent under a nitrogen stream, the dry extracts are stored at −30° C.
# One of the compounds of the invention (IC 180), diluted in physiological serum, is injected at a concentration equal to 20 mg.kg^−1. […] Its concentration decreases by about 50% in the brain, 1 hour after injection. […] The ratio of the concentrations between the brain and the plasma therefore increases between 30 and 60 minutes after injection.
# [3] = 30 min after injection of 20 mg.kg^−1
# [4] = 1 hour after injection of 20 mg.kg^−1
structure (smiles),measurement,setting,value
"c1cc2c(s1)CCCC2N1CCOCC1 (centres unmarked) [IC180, morpholine-4-tetrahydro-4,5,6,7-benzothiophene]",ks (10^−9M^−1 sec^−1) (±SEM),[1],3.75 ± 0.33 10^−9M^−1 sec^−1
same,inhibition at 100 µM,xanthine oxidase; read-out: % inhibition 100 μM,0%
same,inhibition at 500 µM,xanthine oxidase; read-out: % inhibition 500 μM,2%
same,detection in the brain,[2]; [3],detected preferentially in the brain
same,detection in the plasma,[2]; [3],clearly identifiable in the plasma
same,decrease of concentration in the brain,[2]; [4],about 50%
same,detection in the plasma,[2]; [4],can only be detected very slightly
same,ratio of the concentrations between the brain and the plasma,"[2]; between 30 and 60 minutes after injection, FIG. 10",increases
